Read-outs that look alike come from different tables or passages of the source.
How the values were obtained:
Format in all cases: in vivo
Tetranychus urticae = Tetranychus urticae (two-spotted spider mite) feeding/contact activity; conditions: foliar, 192 h, read-out: mortality on mixed population (mobile stages)
Experimental: Tetranychus urticae (Two-Spotted Spider Mite): Feeding/Contact Activity
Bean leaf discs on agar in 24-well microtiter plates were sprayed with aqueous test solutions prepared from 10′000 ppm DMSO stock solutions. After drying the leaf discs were infested with a mite population of mixed ages. The samples were assessed for mortality on mixed population (mobile stages) 8 days after infestation.

Euschistus heros = Euschistus heros (neotropical brown stink bug) feeding/contact activity; conditions: 120 h
Experimental: Euschistus heros (Neotropical Brown Stink Bug): Feeding/Contact Activity
Soybean leaves on agar in 24-well microtiter plates were sprayed with aqueous test solutions prepared from 10′000 ppm DMSO stock solutions. After drying the leaves were infested with N2 nymphs. The samples were assessed for mortality 5 days after infestation.

Spodoptera littoralis = Spodoptera littoralis (Egyptian cotton leaf worm) feeding/contact activity; conditions: foliar, 72 h
Experimental: Spodoptera littoralis (Egyptian cotton leaf worm): Feeding/contact activity Cotton leaf discs were placed onto agar in 24-well microtiter plates and sprayed with aqueous test solutions prepared from 10′000 ppm DMSO stock solutions. After drying the leaf discs were infested with five L1 larvae. The samples were assessed for mortality 3 days after infestation.

Plutella xylostella = Plutella xylostella (diamond back moth) feeding/contact activity; conditions: 120 h
Experimental: Plutella xylostella (Diamond Back Moth): Feeding/Contact Activity
24-well microtiter plates with artificial diet were treated with aqueous test solutions prepared from 10′000 ppm DMSO stock solutions by pipetting. After drying, the plates were infested with L2 larvae (10 to 15 per well). The samples were assessed for mortality 5 days after infestation.

Thrips tabaci = Thrips tabaci (onion thrips) feeding/contact activity; conditions: foliar, 144 h
Experimental: Thrips tabaci (Onion Thrips): Feeding/Contact Activity
Sunflower leaf discs were placed on agar in 24-well microtiter plates and sprayed with aqueous test solutions prepared from 10′000 ppm DMSO stock solutions. After drying the leaf discs were infested with a thrips population of mixed ages. The samples were assessed for mortality 6 days after infestation.

Myzus persicae = Myzus persicae (green peach aphid) feeding/contact activity; conditions: foliar, 144 h
Experimental: Myzus persicae (Green Peach Aphid): Feeding/Contact Activity
Sunflower leaf discs were placed onto agar in a 24-well microtiter plate and sprayed with aqueous test solutions prepared from 10′000 ppm DMSO stock solutions. After drying, the leaf discs were infested with an aphid population of mixed ages. The samples were assessed for mortality 6 days after infestation.

Diabrotica balteata = Diabrotica balteata (corn root worm) mortality test on maize sprouts; conditions: 96 h, application rate 200 ppm, L2 larvae on sprayed maize sprouts, assessed 4 days after infestation
Experimental: Diabrotica balteata (Corn Root Worm):
Maize sprouts placed onto an agar layer in 24-well microtiter plates were treated with aqueous test solutions prepared from 10′000 ppm DMSO stock solutions by spraying. After drying, the plates were infested with L2 larvae (6 to 10 per well). The samples were assessed for mortality 4 days after infestation.

[1] = application rate 200 ppm, mite population of mixed ages on sprayed bean leaf discs, assessed 8 days after infestation
[2] = application rate 200 ppm, N2 nymphs on sprayed soybean leaves, assessed 5 days after infestation, read-out: mortality
[3] = application rate 200 ppm, L1 larvae on sprayed cotton leaf discs, assessed 3 days after infestation, read-out: mortality
[4] = application rate 200 ppm, L2 larvae on treated artificial diet, assessed 5 days after infestation, read-out: mortality
[5] = application rate 200 ppm, thrips population of mixed ages on sprayed sunflower leaf discs, assessed 6 days after infestation, read-out: mortality
[6] = application rate 200 ppm, aphid population of mixed ages on sprayed sunflower leaf discs, assessed 6 days after infestation, read-out: mortality

Measured: mortality at 200 ppm

CC(=O)N(C(=O)c1cc(-c2cnn(-c3c(OC(F)F)c(C(F)(F)C(F)(F)F)nn3C)c2)ccc1C(F)(F)F)C1(C#N)CC1 [Compound 6, N-acetyl-N-(1-cyanocyclopropyl)-5-[1-[4-(difluoromethoxy)-2-methyl-5-(1,1,2,2,2-pentafluoroethyl)pyrazol-3-yl]pyrazol-4-yl]-2-(trifluoromethyl)benzamide]
≥ 80%: Tetranychus urticae; [1] | Euschistus heros; [2] | Spodoptera littoralis; [3] | Plutella xylostella; [4] | Thrips tabaci; [5] | Myzus persicae; [6]

C#CCN(C(=O)c1cc(-c2cnn(-c3c(OC(F)F)c(C(F)(F)C(F)(F)F)nn3C)c2)ccc1C(F)(F)F)C1(C#N)CC1 [Compound 10]
≥ 80%: Tetranychus urticae; [1] | Euschistus heros; [2] | Spodoptera littoralis; [3] | Plutella xylostella; [4] | Thrips tabaci; [5] | Myzus persicae; [6]

Cn1nc(C(F)(F)C(F)(F)F)c(OC(F)F)c1-n1cc(-c2ccc(C(F)(F)F)c(C(=O)NC3CC3)c2)cn1 [Compound 4, N-cyclopropyl-5-[1-[4-(difluoromethoxy)-2-methyl-5-(1,1,2,2,2-pentafluoroethyl)pyrazol-3-yl]pyrazol-4-yl]-2-(trifluoromethyl)benzamide]
≥ 80%: Tetranychus urticae; [1] | Euschistus heros; [2] | Diabrotica balteata | Spodoptera littoralis; [3] | Plutella xylostella; [4] | Thrips tabaci; [5] | Myzus persicae; [6]

CN(C(=O)c1cc(-c2cnn(-c3c(OC(F)F)c(C(F)(F)C(F)(F)F)nn3C)c2)ccc1C(F)(F)F)C1(C#N)CC1 [Compound 2, N-(1-cyanocyclopropyl)-5-[1-[4-(difluoromethoxy)-2-methyl-5-(1,1,2,2,2-pentafluoroethyl)pyrazol-3-yl]pyrazol-4-yl]-N-methyl-2-(trifluoromethyl)benzamide]
≥ 80%: Tetranychus urticae; [1] | Euschistus heros; [2] | Diabrotica balteata | Spodoptera littoralis; [3] | Plutella xylostella; [4] | Thrips tabaci; [5] | Myzus persicae; [6]

Cn1nc(C(F)(F)C(F)(F)F)c(OC(F)F)c1-n1cc(-c2ccc(C(F)(F)F)c(C(=O)N(CC#N)C3(C#N)CC3)c2)cn1 [Compound 8, N-(1-cyanocyclopropyl)-N-(cyanomethyl)-5-[1-[4-(difluoromethoxy)-2-methyl-5-(1,1,2,2,2-pentafluoroethyl)pyrazol-3-yl]pyrazol-4-yl]-2-(trifluoromethyl)benzamide]
≥ 80%: Tetranychus urticae; [1] | Euschistus heros; [2] | Spodoptera littoralis; [3] | Plutella xylostella; [4] | Thrips tabaci; [5] | Myzus persicae; [6]

Cn1nc(C(F)(F)C(F)(F)F)c(OC(F)F)c1-n1cc(-c2ccc(C(F)(F)F)c(C(=O)NC3(C#N)CC3)c2)cn1 [Compound 1, N-(1-cyanocyclopropyl)-5-[1-[4-(difluoromethoxy)-2-methyl-5-(1,1,2,2,2-pentafluoroethyl)pyrazol-3-yl]pyrazol-4-yl]-2-(trifluoromethyl)benzamide]
≥ 80%: Tetranychus urticae; [1] | Euschistus heros; [2] | Diabrotica balteata | Spodoptera littoralis; [3] | Plutella xylostella; [4] | Thrips tabaci; [5] | Myzus persicae; [6]

CCN(C(=O)c1cc(-c2cnn(-c3c(OC(F)F)c(C(F)(F)C(F)(F)F)nn3C)c2)ccc1C(F)(F)F)C1(C#N)CC1 [Compound 3, N-(1-cyanocyclopropyl)-5-[1-[4-(difluoromethoxy)-2-methyl-5-(1,1,2,2,2-pentafluoroethyl)pyrazol-3-yl]pyrazol-4-yl]-N-ethyl-2-(trifluoromethyl)benzamide]
≥ 80%: Tetranychus urticae; [1] | Euschistus heros; [2] | Diabrotica balteata | Spodoptera littoralis; [3] | Plutella xylostella; [4] | Thrips tabaci; [5] | Myzus persicae; [6]

CCOC(=O)N(C(=O)c1cc(-c2cnn(-c3c(OC(F)F)c(C(F)(F)C(F)(F)F)nn3C)c2)ccc1C(F)(F)F)C1(C#N)CC1 [Compound 9, ethyl N-(1-cyanocyclopropyl)-N-[5-[1-[4-(difluoromethoxy)-2-methyl-5-(1,1,2,2,2-pentafluoroethyl)pyrazol-3-yl]pyrazol-4-yl]-2-(trifluoromethyl)benzoyl]carbamate]
≥ 80%: Tetranychus urticae | Euschistus heros; in Glycine max | Spodoptera littoralis | Plutella xylostella | Thrips tabaci | Myzus persicae

COCN(C(=O)c1cc(-c2cnn(-c3c(OC(F)F)c(C(F)(F)C(F)(F)F)nn3C)c2)ccc1C(F)(F)F)C1(C#N)CC1 [Compound 7, N-(1-cyanocyclopropyl)-5-[1-[4-(difluoromethoxy)-2-methyl-5-(1,1,2,2,2-pentafluoroethyl)pyrazol-3-yl]pyrazol-4-yl]-N-(methoxymethyl)-2-(trifluoromethyl)benzamide]
≥ 80%: Tetranychus urticae; [1] | Euschistus heros; [2] | Spodoptera littoralis; [3] | Plutella xylostella; [4] | Thrips tabaci; [5] | Myzus persicae; [6]

Cn1nc(C(F)(F)C(F)(F)F)c(OC(F)F)c1-n1cc(-c2ccc(C(F)(F)F)c(C(=O)N(CC3CC3)C3(C#N)CC3)c2)cn1 [Compound 5, N-(1-cyanocyclopropyl)-N-(cyclopropylmethyl)-5-[1-[4-(difluoromethoxy)-2-methyl-5-(1,1,2,2,2-pentafluoroethyl)pyrazol-3-yl]pyrazol-4-yl]-2-(trifluoromethyl)benzamide]
≥ 80%: Euschistus heros; [2] | Spodoptera littoralis; [3] | Plutella xylostella; [4] | Thrips tabaci; [5] | Myzus persicae; [6]

— patent US20200288713A1, “PESTICIDALLY ACTIVE PYRAZOLE DERIVATIVES” (SYNGENTA PARTICIPATIONS AG, priority 2017, published 2020)
